Key:
Experiment in all cases: Leucine-peptidase detection on agar medium (Example 11); as to color of the colony: key: B corresponds to fluorescent blue; R corresponds to pink
Format in all cases: cell-based
Pseudomonas aeruginosa = test system: Pseudomonas aeruginosa; as to color of the colony: key: B corresponds to fluorescent blue; R corresponds to pink
Procedure: (§1) The detection medium was prepared by mixing 1.4 g of biogelytone (bioMérieux), 0.84 g of meat extract (bioMérieux), 2.24 g of NaCl (Merck), 280 μl of a solution of IPTG (isopropylthio-β-D-galactopyranoside, BIOSYNTH) in water (concentration 10 g/l) and 4.2 g of European agar (bioMérieux).
(§2) The substrate of the invention obtained in Example 2, in which the amino acid is leucine (leucine-9-aminobenzo[a]phenoxazin-5-one or Leu-ABP), or else a substrate of the prior art, which is leucine-aminomethylcoumarin (Leu-AMC, BACHEM), was then added in the following way: 280 ml of osmosed water were added to the medium, and the mixture was melted in a waterbath at 100° C. The mixture was autoclaved for 15 min at 121° C. and cooled to 50° C. in a waterbath.
(§3) The medium was then poured into Petri dishes.
(§4) The coloration of these colonies, the diffusion, and also the intensity of this coloration were noted.
(§5) The results were expressed as intensity of coloration using an arbitrary scale ranging from 0 to 4 as a basis and also as diffusion also using an arbitrary scale ranging from 0 to 4 as a basis.

Citrobacter freundii = test system: Citrobacter freundii; as to color of the colony: key: B corresponds to fluorescent blue; R corresponds to pink
Procedure: as §1, §2, §3, §4, §5

Enterobacter cloaccae = test system: Enterobacter cloaccae; as to color of the colony: key: B corresponds to fluorescent blue; R corresponds to pink
Procedure: as §1, §2, §3, §4, §5

Candida albicans = test system: Candida albicans; as to color of the colony: key: B corresponds to fluorescent blue; R corresponds to pink
Procedure: as §1, §2, §3, §4, §5

Klebsellia pneumoniae = test system: Klebsellia pneumoniae; as to color of the colony: key: B corresponds to fluorescent blue; R corresponds to pink
Procedure: as §1, §2, §3, §4, §5

Escherichia coli = test system: Escherichia coli; as to color of the colony: key: B corresponds to fluorescent blue; R corresponds to pink
Procedure: as §1, §2, §3, §4, §5

Substance: leucine-9-aminobenzo[a]phenoxazin-5-one [Leu-ABP]
- growth diameter (Pseudomonas aeruginosa; 24 h, 25 mg/l): 2 mm
- color of the colony (Pseudomonas aeruginosa; 24 h, 50 mg/l): R
- growth diameter (Pseudomonas aeruginosa; 24 h, 50 mg/l): 2 mm
- intensity of coloration, scale 0 to 4 (Pseudomonas aeruginosa; 24 h, 50 mg/l): 0.75
- color of the colony (Pseudomonas aeruginosa; 24 h, 100 mg/l): R
- growth diameter (Pseudomonas aeruginosa; 24 h, 100 mg/l): 2 mm
- intensity of coloration, scale 0 to 4 (Pseudomonas aeruginosa; 24 h, 100 mg/l): 0.75
- color of the colony (Pseudomonas aeruginosa; 24 h, 200 mg/l): R
- growth diameter (Pseudomonas aeruginosa; 24 h, 200 mg/l): 2 mm
- intensity of coloration, scale 0 to 4 (Pseudomonas aeruginosa; 24 h, 200 mg/l): 0.5
- color of the colony (Pseudomonas aeruginosa; 24 h, 400 mg/l): R
- growth diameter (Pseudomonas aeruginosa; 24 h, 400 mg/l): 2 mm
- intensity of coloration, scale 0 to 4 (Pseudomonas aeruginosa; 24 h, 400 mg/l): 0.5
- color of the colony (Pseudomonas aeruginosa; 48 h, 25 mg/l): R
- growth diameter (Pseudomonas aeruginosa; 48 h, 25 mg/l): 2 mm
- intensity of coloration, scale 0 to 4 (Pseudomonas aeruginosa; 48 h, 25 mg/l): 1
- color of the colony (Pseudomonas aeruginosa; 48 h, 50 mg/l): R
- growth diameter (Pseudomonas aeruginosa; 48 h, 50 mg/l): 2 mm
- intensity of coloration, scale 0 to 4 (Pseudomonas aeruginosa; 48 h, 50 mg/l): 2.5
- color of the colony (Pseudomonas aeruginosa; 48 h, 100 mg/l): R
- growth diameter (Pseudomonas aeruginosa; 48 h, 100 mg/l): 2 mm
- intensity of coloration, scale 0 to 4 (Pseudomonas aeruginosa; 48 h, 100 mg/l): 2.5
- color of the colony (Pseudomonas aeruginosa; 48 h, 200 mg/l): R
- growth diameter (Pseudomonas aeruginosa; 48 h, 200 mg/l): 2 mm
- intensity of coloration, scale 0 to 4 (Pseudomonas aeruginosa; 48 h, 200 mg/l): 2
- color of the colony (Pseudomonas aeruginosa; 48 h, 400 mg/l): R
- growth diameter (Pseudomonas aeruginosa; 48 h, 400 mg/l): 2 mm
- intensity of coloration, scale 0 to 4 (Pseudomonas aeruginosa; 48 h, 400 mg/l): 0.5
- color of the colony (Citrobacter freundii; 24 h, 25 mg/l): R
- growth diameter (Citrobacter freundii; 24 h, 25 mg/l): 0.7 mm
- intensity of coloration, scale 0 to 4 (Citrobacter freundii; 24 h, 25 mg/l): 1.5
- color of the colony (Citrobacter freundii; 24 h, 50 mg/l): R
- growth diameter (Citrobacter freundii; 24 h, 50 mg/l): 0.7 mm
- intensity of coloration, scale 0 to 4 (Citrobacter freundii; 24 h, 50 mg/l): 1.5
- color of the colony (Citrobacter freundii; 24 h, 100 mg/l): R
- growth diameter (Citrobacter freundii; 24 h, 100 mg/l): 0.7 mm
- intensity of coloration, scale 0 to 4 (Citrobacter freundii; 24 h, 100 mg/l): 0.75
- color of the colony (Citrobacter freundii; 24 h, 200 mg/l): R
- growth diameter (Citrobacter freundii; 24 h, 200 mg/l): 0.8 mm
- intensity of coloration, scale 0 to 4 (Citrobacter freundii; 24 h, 200 mg/l): 1
- color of the colony (Citrobacter freundii; 24 h, 400 mg/l): R
- growth diameter (Citrobacter freundii; 24 h, 400 mg/l): 0.7 mm
- intensity of coloration, scale 0 to 4 (Citrobacter freundii; 24 h, 400 mg/l): 2
- color of the colony (Citrobacter freundii; 48 h, 25 mg/l): R
- growth diameter (Citrobacter freundii; 48 h, 25 mg/l): 0.7 mm
- intensity of coloration, scale 0 to 4 (Citrobacter freundii; 48 h, 25 mg/l): 2.5
- color of the colony (Citrobacter freundii; 48 h, 50 mg/l): R
- growth diameter (Citrobacter freundii; 48 h, 50 mg/l): 0.7 mm
- intensity of coloration, scale 0 to 4 (Citrobacter freundii; 48 h, 50 mg/l): 2.5
- color of the colony (Citrobacter freundii; 48 h, 100 mg/l): R
- growth diameter (Citrobacter freundii; 48 h, 100 mg/l): 0.7 mm
- intensity of coloration, scale 0 to 4 (Citrobacter freundii; 48 h, 100 mg/l): 1.5
- color of the colony (Citrobacter freundii; 48 h, 200 mg/l): R
- growth diameter (Citrobacter freundii; 48 h, 200 mg/l): 0.8 mm
- intensity of coloration, scale 0 to 4 (Citrobacter freundii; 48 h, 200 mg/l): 2
- color of the colony (Citrobacter freundii; 48 h, 400 mg/l): R
- growth diameter (Citrobacter freundii; 48 h, 400 mg/l): 0.7 mm
- intensity of coloration, scale 0 to 4 (Citrobacter freundii; 48 h, 400 mg/l): 2
- color of the colony (Enterobacter cloaccae; 24 h, 25 mg/l): R
- growth diameter (Enterobacter cloaccae; 24 h, 25 mg/l): 0.7 mm
- intensity of coloration, scale 0 to 4 (Enterobacter cloaccae; 24 h, 25 mg/l): 1.5
- color of the colony (Enterobacter cloaccae; 24 h, 50 mg/l): R
- growth diameter (Enterobacter cloaccae; 24 h, 50 mg/l): 0.5 mm
- intensity of coloration, scale 0 to 4 (Enterobacter cloaccae; 24 h, 50 mg/l): 2.5
- color of the colony (Enterobacter cloaccae; 24 h, 100 mg/l): R
- growth diameter (Enterobacter cloaccae; 24 h, 100 mg/l): 1 mm
- intensity of coloration, scale 0 to 4 (Enterobacter cloaccae; 24 h, 100 mg/l): 3
- color of the colony (Enterobacter cloaccae; 24 h, 200 mg/l): R
- growth diameter (Enterobacter cloaccae; 24 h, 200 mg/l): 1.5 mm
- intensity of coloration, scale 0 to 4 (Enterobacter cloaccae; 24 h, 200 mg/l): 3
- color of the colony (Enterobacter cloaccae; 24 h, 400 mg/l): R
- growth diameter (Enterobacter cloaccae; 24 h, 400 mg/l): 1.5 mm
- intensity of coloration, scale 0 to 4 (Enterobacter cloaccae; 24 h, 400 mg/l): 3
- color of the colony (Enterobacter cloaccae; 48 h, 25 mg/l): R
- growth diameter (Enterobacter cloaccae; 48 h, 25 mg/l): 0.7 mm
- intensity of coloration, scale 0 to 4 (Enterobacter cloaccae; 48 h, 25 mg/l): 2.5
- color of the colony (Enterobacter cloaccae; 48 h, 50 mg/l): R
- growth diameter (Enterobacter cloaccae; 48 h, 50 mg/l): 0.5 mm
- intensity of coloration, scale 0 to 4 (Enterobacter cloaccae; 48 h, 50 mg/l): 3
- color of the colony (Enterobacter cloaccae; 48 h, 100 mg/l): R
- growth diameter (Enterobacter cloaccae; 48 h, 100 mg/l): 1.3 mm
- intensity of coloration, scale 0 to 4 (Enterobacter cloaccae; 48 h, 100 mg/l): 3
- color of the colony (Enterobacter cloaccae; 48 h, 200 mg/l): R
- growth diameter (Enterobacter cloaccae; 48 h, 200 mg/l): 1.5 mm
- intensity of coloration, scale 0 to 4 (Enterobacter cloaccae; 48 h, 200 mg/l): 3
- color of the colony (Enterobacter cloaccae; 48 h, 400 mg/l): R
- growth diameter (Enterobacter cloaccae; 48 h, 400 mg/l): 1.7 mm
- intensity of coloration, scale 0 to 4 (Enterobacter cloaccae; 48 h, 400 mg/l): 3
- growth diameter (Candida albicans; 24 h, 25 mg/l): 0.3 mm
- color of the colony (Candida albicans; 48 h, 25 mg/l): R
- growth diameter (Candida albicans; 48 h, 25 mg/l): 0.5 mm
- intensity of coloration, scale 0 to 4 (Candida albicans; 48 h, 25 mg/l): 0.25
- growth diameter (Candida albicans; 48 h, 50 mg/l): 0.3 mm
- color of the colony (Klebsellia pneumoniae; 24 h, 25 mg/l): R
- growth diameter (Klebsellia pneumoniae; 24 h, 25 mg/l): 1.8 mm
- intensity of coloration, scale 0 to 4 (Klebsellia pneumoniae; 24 h, 25 mg/l): 1.5
- color of the colony (Klebsellia pneumoniae; 24 h, 50 mg/l): R
- growth diameter (Klebsellia pneumoniae; 24 h, 50 mg/l): 1.7 mm
- intensity of coloration, scale 0 to 4 (Klebsellia pneumoniae; 24 h, 50 mg/l): 1.5
- color of the colony (Klebsellia pneumoniae; 24 h, 100 mg/l): R
- growth diameter (Klebsellia pneumoniae; 24 h, 100 mg/l): 1.7 mm
- intensity of coloration, scale 0 to 4 (Klebsellia pneumoniae; 24 h, 100 mg/l): 1.5
- color of the colony (Klebsellia pneumoniae; 24 h, 200 mg/l): R
- growth diameter (Klebsellia pneumoniae; 24 h, 200 mg/l): 1.7 mm
- intensity of coloration, scale 0 to 4 (Klebsellia pneumoniae; 24 h, 200 mg/l): 2
- color of the colony (Klebsellia pneumoniae; 24 h, 400 mg/l): R
- growth diameter (Klebsellia pneumoniae; 24 h, 400 mg/l): 1.7 mm
- intensity of coloration, scale 0 to 4 (Klebsellia pneumoniae; 24 h, 400 mg/l): 2.5
- color of the colony (Klebsellia pneumoniae; 48 h, 25 mg/l): R
- growth diameter (Klebsellia pneumoniae; 48 h, 25 mg/l): 1.8 mm
- intensity of coloration, scale 0 to 4 (Klebsellia pneumoniae; 48 h, 25 mg/l): 2
- color of the colony (Klebsellia pneumoniae; 48 h, 50 mg/l): R
- growth diameter (Klebsellia pneumoniae; 48 h, 50 mg/l): 1.7 mm
- intensity of coloration, scale 0 to 4 (Klebsellia pneumoniae; 48 h, 50 mg/l): 2.5
- color of the colony (Klebsellia pneumoniae; 48 h, 100 mg/l): R
- growth diameter (Klebsellia pneumoniae; 48 h, 100 mg/l): 1.7 mm
- intensity of coloration, scale 0 to 4 (Klebsellia pneumoniae; 48 h, 100 mg/l): 1.5
- color of the colony (Klebsellia pneumoniae; 48 h, 200 mg/l): R
- growth diameter (Klebsellia pneumoniae; 48 h, 200 mg/l): 1.7 mm
- intensity of coloration, scale 0 to 4 (Klebsellia pneumoniae; 48 h, 200 mg/l): 1
- color of the colony (Klebsellia pneumoniae; 48 h, 400 mg/l): R
- growth diameter (Klebsellia pneumoniae; 48 h, 400 mg/l): 1.8 mm
- intensity of coloration, scale 0 to 4 (Klebsellia pneumoniae; 48 h, 400 mg/l): 1
- color of the colony (Escherichia coli; 24 h, 25 mg/l): R
- growth diameter (Escherichia coli; 24 h, 25 mg/l): 1.8 mm
- intensity of coloration, scale 0 to 4 (Escherichia coli; 24 h, 25 mg/l): 0.0
- color of the colony (Escherichia coli; 24 h, 50 mg/l): R
- growth diameter (Escherichia coli; 24 h, 50 mg/l): 1.7 mm
- intensity of coloration, scale 0 to 4 (Escherichia coli; 24 h, 50 mg/l): 0.5
- color of the colony (Escherichia coli; 24 h, 100 mg/l): R
- growth diameter (Escherichia coli; 24 h, 100 mg/l): 1.8 mm
- intensity of coloration, scale 0 to 4 (Escherichia coli; 24 h, 100 mg/l): 0.0
- growth diameter (Escherichia coli; 24 h, 200 mg/l): 1.7 mm
- color of the colony (Escherichia coli; 24 h, 400 mg/l): R
- growth diameter (Escherichia coli; 24 h, 400 mg/l): 1.8 mm
- intensity of coloration, scale 0 to 4 (Escherichia coli; 24 h, 400 mg/l): 0.75
- color of the colony (Escherichia coli; 48 h, 25 mg/l): R
- growth diameter (Escherichia coli; 48 h, 25 mg/l): 1.8 mm
- intensity of coloration, scale 0 to 4 (Escherichia coli; 48 h, 25 mg/l): 0.25
- color of the colony (Escherichia coli; 48 h, 50 mg/l): R
- growth diameter (Escherichia coli; 48 h, 50 mg/l): 1.8 mm
- intensity of coloration, scale 0 to 4 (Escherichia coli; 48 h, 50 mg/l): 0.5
- color of the colony (Escherichia coli; 48 h, 100 mg/l): R
- growth diameter (Escherichia coli; 48 h, 100 mg/l): 1.8 mm
- growth diameter (Escherichia coli; 48 h, 200 mg/l): 1.7 mm
- growth diameter (Escherichia coli; 48 h, 400 mg/l): 1.8 mm
